Assay results taken from patent US10316017B2, “COT modulators and methods of use thereof” (Gilead Sciences, Inc., priority 2015, dated 2019).
Where two headings read alike, the source gives them in different places.

Key:
[1] = biological target: T1, Human EGFR, cytoplasmic domain [669-1210] (Homo sapiens, UniProt P00533); assay: High Throughput EGFR Biochemical Assay (KinEASE TR-FRET)
T1 construct: purchased Cama Biosciences (so in the source)
Method: Example 62: High Throughput EGFR Biochemical Assay
EGFR activity was measured using KinEASE (Cisbio), a time-resolved fluorescence resonance energy transfer (TR-FRET) immunoassay. In this assay, EGFR-catalyzes the phosphorylation of a universal Tyrosine kinase peptide substrate labeled with XL665. Europium conjugated phosphor-tyrosine specific antibody binds the resulting phosphorylated peptide. Formation of phosphorylated peptide is quantified by TR-FRET with Europium as the donor and XL665 the acceptor. The assay was performed in two main steps. The first step is the kinase reaction step and the second step is the detection step with TR-FRET reagents. In brief, test compounds 1:3 serially diluted in DMSO were delivered into Corning white, low volume, non-binding 384 well plates using the Echo 550 acoustic liquid dispenser (Labcyte®). […] After 60 min of incubation at room temperature, 10 μL of Stop and Detect Solution (1:400 Europium Cryptate labeled anti-phosphorylated peptide antibody solution and 125 nM strepavidin-XL665 Tracer in a 50 mM Hepes pH 7.0 detection buffer containing sufficient EDTA) was added.

[2] = biological target: T2, human Cot catalytic domain (30-397 amino acids) (Homo sapiens, UniProt P41279); assay: High Throughput Cot Biochemical Assay (KinEASE TR-FRET)
T2 construct: Purified recombinant human Cot catalytic domain (30-397 amino acids) was purchased from Cama Biosciences; purchased Cama Biosciences (so in the source)
Summary of the method: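 TR-FRET (KinEASE) read-out: Eu-labelled phospho-specific antibody binds XL665-tagged STK3 peptide (1 μM) phosphorylated by 5 nM human Cot kinase domain (residues 30-397). Reaction at 400 μM ATP, pH 7.0 MOPS buffer with 10 mM MgOAc, 1 mM DTT and 0.1% DMSO.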

[3] = tested on: TNFα production in LPS-stimulated human monocytes; assay: Cot Monocyte TNFα Cell Based Assay; conditions: for EC50: Homo sapiens, Monocyte, read-out: EC50 TNF; for IC50/EC50 [nM]: EC50 (TNFα, monocytes): second value of the cell IC50/EC50, human monocytes, 50 pg/ml LPS, 4 hours
Summary of the method: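 TNFα release quantified by two-antibody TR-FRET, normalised to unstimulated (0%) and LPS-stimulated (100%) wells. Cells got a 1 h compound exposure at 37° C in 0.5% DMSO before 4 h challenge with 50 pg/ml LPS, at 5,000 cells/well.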

[4] = Cot KinEASE TR-FRET, 400 μM ATP, read-out: IC50 HTRF
[5] = LPS-stimulated human monocytes, TNFα TR-FRET
[6] = Cot KinEASE TR-FRET (HTRF) biochemical assay, 400 μM ATP, read-out: IC50 HTRF
[7] = TNFα in LPS-stimulated human monocytes
[8] = Cot biochemical HTRF (KinEASE TR-FRET) assay, read-out: IC50 HTRF

T1 sequence (P00533 669-1210): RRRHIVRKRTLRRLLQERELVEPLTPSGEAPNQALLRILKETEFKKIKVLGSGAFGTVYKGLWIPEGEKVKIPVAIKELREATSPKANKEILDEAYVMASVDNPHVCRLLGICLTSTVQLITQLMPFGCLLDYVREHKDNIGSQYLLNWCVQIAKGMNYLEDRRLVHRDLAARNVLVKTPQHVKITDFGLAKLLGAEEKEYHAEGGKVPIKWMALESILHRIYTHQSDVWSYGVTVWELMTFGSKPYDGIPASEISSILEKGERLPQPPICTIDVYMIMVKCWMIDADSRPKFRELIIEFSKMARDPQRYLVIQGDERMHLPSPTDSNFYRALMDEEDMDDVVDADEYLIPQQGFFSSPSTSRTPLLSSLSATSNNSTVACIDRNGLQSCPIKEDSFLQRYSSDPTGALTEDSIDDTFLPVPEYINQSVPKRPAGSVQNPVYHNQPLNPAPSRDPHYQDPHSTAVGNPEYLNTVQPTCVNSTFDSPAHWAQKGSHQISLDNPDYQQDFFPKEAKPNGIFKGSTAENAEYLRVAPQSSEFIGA
T2 sequence (P41279 30-397): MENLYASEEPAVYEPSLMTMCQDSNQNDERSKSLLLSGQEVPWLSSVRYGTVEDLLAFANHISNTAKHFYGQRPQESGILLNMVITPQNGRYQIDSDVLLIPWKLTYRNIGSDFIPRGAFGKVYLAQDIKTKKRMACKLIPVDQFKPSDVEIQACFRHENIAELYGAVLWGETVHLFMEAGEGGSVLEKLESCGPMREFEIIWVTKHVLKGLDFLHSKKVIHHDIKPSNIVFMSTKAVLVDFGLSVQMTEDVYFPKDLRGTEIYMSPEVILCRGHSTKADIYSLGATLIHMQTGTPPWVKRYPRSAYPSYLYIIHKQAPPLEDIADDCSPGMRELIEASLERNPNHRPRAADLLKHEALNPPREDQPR

Row | IC50 [2, 4] [nM] | EC50 [3, 5] [nM] | EC50 [3, 7] [nM] | SMILES | also measured
1 | – | – | – | CC(Nc1cc(Cl)c2ncc(C#N)c(Nc3ccc(F)c(Cl)c3)c2c1)c1cn(C)nn1 (centres unmarked) [Comparative Example 4, reference compound] | IC50 [1]: > 10 µM; IC50 ([2]; first value of the cell IC50/EC50, 400 μM ATP, 5 nM Cot, read-out: IC50/EC50 [nM]: IC50 (Cot)): > 10000 nM
2 | – | – | – | Cn1cc(CNc2cc(Cl)c3ncc(C#N)c(Nc4ccc(F)c(Cl)c4)c3c2)nn1 [Comparative Example 3, reference compound] | IC50 [1]: > 10 µM; IC50 ([2]; IC50/EC50 [nM]: IC50 (Cot), first value of the cell IC50/EC50, 400 μM ATP, 5 nM Cot): 67 nM; IC50/EC50 [nM]: EC50 (TNFα, monocytes) [3]: > 10000 nM
3 | 6 | 161 | – | CC(C)(C)CNc1c(C#N)cnc2c(C#N)cc(N[C@H](c3cn(C4(C(N)=O)CCCC4)nn3)c3ccccc3Cl)cc12 [Example 1020, (S)-1-(4-((2-chlorophenyl) ((3,8-dicyano-4-(neopentylamino)quinolin-6-yl)amino)methyl)-1H-1,2,3-triazol-1-yl)cyclopentane-1-carboxamide] | –
4 | – | – | 4790 | N#Cc1cnc2c(Cl)cc(N[C@@H](c3ccc(F)cc3)c3c[nH]nn3)cc2c1NCc1cscn1 [Example 401, (S)-8-chloro-6-(((4-fluorophenyl)(1H-1,2,3-triazol-4-yl)methyl)amino)-4-((thiazol-4-ylmethyl)amino)quinoline-3-carbonitrile] | IC50 [2, 6]: 758 nM
5 | – | – | 83 | [2H][C@](Nc1cc(C#N)c2ncc(C#N)c(NCC(C)(C)C)c2c1)(c1ccc(F)cc1)c1cn(C)nn1 [Example 209, (S)-6-(((4-fluorophenyl)(1-methyl-1H-1,2,3-triazol-4-yl)methyl-d)amino)-4-(neopentylamino) quinoline-3,8-dicarbonitrile] | IC50 [2, 6]: 3 nM
6 | – | – | 411 | N#Cc1cnc2c(Cl)cc(N[C@@H](c3ccccc3)c3cn(CCN4CCOCC4)nn3)cc2c1Nc1ccc(F)c(Cl)c1 [Example 737, (S)-8-chloro-4-((3-chloro-4-fluorophenyl)amino)-6-(((1-(2-morpholinoethyl)-1H-1,2,3-triazol-4-yl)(phenyl)methyl)amino)quinoline-3-carbonitrile] | IC50 [2, 8]: 21 nM
7 | – | – | > 10000 | [2H][C@](Nc1cc(Cl)c2ncc(C#N)c(N[C@@H](CC#N)c3ccccc3)c2c1)(c1ccc(F)cc1)c1cn(C2CC2)nn1 [Example 334, 8-chloro-4-(((S)-2-cyano-1-phenylethyl)amino)-6-(((S)-(1-cyclopropyl-1H-1,2,3-triazol-4-yl)(4-fluorophenyl)methyl-d)amino)quinoline-3-carbonitrile] | IC50 [2, 6]: 258 nM
8 | – | – | 278 | CC(=O)Nc1cccc([C@H](Nc2cc(Br)c3ncc(C#N)c(NCC(C)(C)C)c3c2)c2cn(C3CC3)nn2)c1 [Example 79, (S)-N-(3-(((8-bromo-3-cyano-4-(neopentylamino)quinolin-6-yl)amino) (1-cyclopropyl-1H-1,2,3-triazol-4-yl)methyl)phenyl)acetamide] | IC50 [2, 6]: 8 nM
9 | 7 | 371 | – | CC(C)(C)CNc1c(C#N)cnc2c(C#N)cc(N[C@H](c3cn(C4(C#N)CC4)nn3)c3ccccc3CO)cc12 [Example 1026, (S)-6-(((1-(1-cyanocyclopropyl)-1H-1,2,3-triazol-4-yl)(2-(hydroxymethyl)phenyl)methyl)amino)-4-(neopentylamino)quinoline-3,8-dicarbonitrile] | –
10 | – | – | 3510 | C[C@@H](Nc1c(C#N)cnc2c(Cl)cc(N[C@@H](c3ccc(Cl)cc3)c3cn(C4CCN(C(C)(C)C)CC4)nn3)cc12)c1ccccc1 [Example 704, 6-(((S)-(1-(1-(tert-butyl)piperidin-4-yl)-1H-1,2,3-triazol-4-yl)(4-chlorophenyl)methyl)amino)-8-chloro-4-(((R)-1-phenylethyl)amino)quinoline-3-carbonitrile] | IC50 [2, 8]: 37 nM
11 | 8 | 134 | – | CC(C)(C)CNc1c(C#N)cnc2c(C#N)cc(N[C@H](c3cn(C4(C#N)CCC4)nn3)c3ccccc3Cl)cc12 [Example 952, (S)-6-(((2-chlorophenyl)(1-(1-cyanocyclobutyl)-1H-1,2,3-triazol-4-yl)methyl)amino)-4-(neopentylamino)quinoline-3,8-dicarbonitrile] | –
12 | 8 | 63 | – | Cc1c(C#N)cccc1[C@H](Nc1cc(Cl)c2ncc(C#N)c(NCC(C)(C)C)c2c1)c1cn(C(CF)CF)nn1 [Example 1102, (S)-8-chloro-6-(((3-cyano-2-methylphenyl)(1-(1,3-difluoropropan-2-yl)-1H-1,2,3-triazol-4-yl)methyl)amino)-4-(neopentylamino)quinoline-3-carbonitrile] | –
13 | 5 | 76 | – | CC(C)(C)CNc1c(C#N)cnc2c(Cl)cc(N[C@@H](c3ccc(F)cc3)c3cn(C4(C(N)=O)CCC4)nn3)cc12 [Example 992, (S)-1-(4-(((8-chloro-3-cyano-4-(neopentylamino)quinolin-6-yl)amino)(4-fluorophenyl)methyl)-1H-1,2,3-triazol-1-yl) cyclobutane-1-carboxamide] | –
14 | – | – | 90 | CC(C)(C)N1CCC(n2cc([C@@H](Nc3cc(Cl)c4ncc(C#N)c(Nc5ccc(F)c(Cl)c5)c4c3)c3cccc(C(=O)N4CCCC4)c3)nn2)CC1 [Example 691, (S)-6-(((1-(1-(tert-butyl)piperidin-4-yl)-1H-1,2,3-triazol-4-yl)(3-(pyrrolidine-1-carbonyl)phenyl)methyl)amino)-8-chloro-4-((3-chloro-4-fluorophenyl)amino)quinoline-3-carbonitrile] | IC50 [2, 8]: 2 nM
15 | – | – | 12800 | CC(C)(C)N1CCC(n2cc([C@@H](Nc3cc(Cl)c4ncc(C#N)c(NCc5ccccc5)c4c3)c3ccc(Cl)cc3)nn2)CC1 [Example 706, (S)-4-(benzylamino)-6-(((1-(1-(tert-butyl)piperidin-4-yl)-1H-1,2,3-triazol-4-yl)(4-chlorophenyl)methyl)amino)-8-chloroquinoline-3-carbonitrile] | IC50 [2, 8]: 95 nM
16 | – | – | 8560 | CC[C@H](C)Nc1c(C#N)cnc2c(Cl)cc(N[C@@H](c3ccccc3)c3cn(C(C)C)nn3)cc12 [Example 586, 4-(((S)-sec-butyl)amino)-8-chloro-6-(((S)-(1-isopropyl-1H-1,2,3-triazol-4-yl)(phenyl)methyl)amino) quinoline-3-carbonitrile] | IC50 [2, 8]: 892 nM

Row | SMILES | IC50 [2, 4] [nM] | EC50 [3, 5] [nM] | EC50 [3, 7] [nM] | also measured
17 | Cn1cc(C(Nc2cc(Cl)c3ncc(C#N)c(Nc4ccc(F)c(Cl)c4)c3c2)c2ccccc2)nn1 (centres unmarked) [Example 920, 8-chloro-4-((3-chloro-4-fluorophenyl)amino)-6-(((1-methyl-1H-1,2,3-triazol-4-yl)(phenyl)methyl)amino) quinoline-3-carbonitrile] | 10 | 215 | – | IC50 [1]: > 10 µM; IC50/EC50 [nM]: EC50 (TNFα, monocytes) [3]: 215 nM
18 | CCN1CCC(n2cc([C@@H](Nc3cc(Cl)c4ncc(C#N)c(Nc5ccc(F)c(Cl)c5)c4c3)c3ccccc3)nn2)CC1 [Example 919, (S)-8-chloro-4-((3-chloro-4-fluorophenyl)amino)-6-(((1-(1-ethylpiperidin-4-yl)-1H-1,2,3-triazol-4-yl)(phenyl)methyl)amino) quinoline-3-carbonitrile] | 2 | 62 | – | IC50 [1]: 2.29 µM; IC50/EC50 [nM]: EC50 (TNFα, monocytes) [3]: 62 nM
